Columns and labels:
Format in all cases: functional
U-251 = assay: Growth inhibition of human U251 cells assessed as cell growth at 5X10'-5 M after 48 hrs by sulforhodamine B assay; conditions: U-251, 48 h, read-out: Activity
TK-10 = assay: Growth inhibition of human TK10 cells assessed as cell growth at 5X10'-6 M after 48 hrs by sulforhodamine B assay; conditions: TK-10, 48 h, read-out: Activity
M14 = assay: Growth inhibition of human M14 cells assessed as cell growth at 5X10'-6 M after 48 hrs by sulforhodamine B assay; conditions: M14, 48 h, read-out: Activity
NCI-H23 = assay: Growth inhibition of human NCI-H23 cells assessed as cell growth at 5X10'-9 M after 48 hrs by sulforhodamine B assay; conditions: NCI-H23, 48 h, read-out: Activity
SW-620 = assay: Growth inhibition of human SW620 cells assessed as cell growth at 5X10'-9 M after 48 hrs by sulforhodamine B assay; conditions: SW-620, 48 h, read-out: Activity

| Compound | growth at 50 µM (U-251) [%] | growth at 5 µM (TK-10) [%] | growth at 5 µM (M14) [%] | growth at 0.005 µM (NCI-H23) [%] | growth at 0.005 µM (SW-620) [%] |
| --- | --- | --- | --- | --- | --- |
| COc1cc(-c2nn(-c3cccc(NC(=O)Nc4ccc(Cl)c(Cl)c4)c3)cc2-c2ccncc2)ccc1Cl | -49 | 11 | -29 | 97 | 97 |
| COc1cc(-c2nn(-c3cccc(NC(=O)Nc4cccc(C(F)(F)F)c4)c3)cc2-c2ccncc2)ccc1Cl | -84 | 10 | -54 | 96 | 98 |
| COc1cc(-c2nn(-c3cccc(NC(=O)Nc4cc(C(F)(F)F)cc(C(F)(F)F)c4)c3)cc2-c2ccncc2)ccc1Cl | -78 | -34 | -29 | 99 | 98 |
| COc1cc(-c2nn(-c3cccc(NC(=O)c4cccc(C(F)(F)F)c4)c3)cc2-c2ccncc2)ccc1Cl | 3 | 36 | 11 | 91 | 99 |
| O=C(Nc1cccc(-n2cc(-c3ccncc3)c(-c3ccc(Cl)c(O)c3)n2)c1)Nc1cc(C(F)(F)F)cc(C(F)(F)F)c1 | -91 | -13 | -47 | 98 | 99 |
| O=C(Nc1cccc(-n2cc(-c3ccncc3)c(-c3ccc(Cl)c(O)c3)n2)c1)c1ccc(N2CCOCC2)c(C(F)(F)F)c1 | -7 | 94 | 18 | 93 | 102 |
